Key:
MmCLK1 = MmCLK1 (Mus musculus, UniProt P22518); experiment: ADP-Glo kinase assay; format: biochemical, Mus musculus (Mm); details: for remaining activity at 1 µM: mean n = 2, % of maximum activity of DMSO control, read-out: % Residual activity at 1 μM CLK1; for Selectivity index CLK1/Haspin: IC50 CLK1/IC50 Haspin; for IC50: dose-response curve, each point in duplicate, read-out: Kinase inhibition (IC50) CLK1
Procedure: (§1) Kinase activities were determined using the ADP-Glo methodology (ADP-Glo Kinase Assay; Promega) according to the assay described by Nguyen et al.[32] except for MmCLK1. The later was assayed in the following buffer: 10 mM MgCl2, 1 mM EGTA, 1 mM DTT, 25 mM Tris-HCl pH 7.5, 50 µg/ml heparin, 0.15 mg/ml BSA, with 0.027 µg/µl of the following peptide: GRSRSRSRSRSR as substrate.

HsCdk5/p25 = HsCdk5/p25 (Homo sapiens, UniProt Q00535); experiment: ADP-Glo kinase assay; format: biochemical, Homo sapiens (Hs); details: mean n = 2, % of maximum activity of DMSO control, read-out: % Residual activity at 1 μM CDK5
HsCdk5/p25, sequence (Q00535 whole entry): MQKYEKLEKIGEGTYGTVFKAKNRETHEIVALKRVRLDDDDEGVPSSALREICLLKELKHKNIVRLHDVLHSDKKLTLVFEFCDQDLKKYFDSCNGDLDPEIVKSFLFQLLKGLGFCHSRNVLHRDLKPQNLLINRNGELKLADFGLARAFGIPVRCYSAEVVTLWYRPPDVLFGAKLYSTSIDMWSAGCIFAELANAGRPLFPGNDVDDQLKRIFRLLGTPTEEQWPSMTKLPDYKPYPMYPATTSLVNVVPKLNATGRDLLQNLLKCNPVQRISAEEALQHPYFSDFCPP
HsCdk5/p25, sequence (Q15078 99-307 partner limits assumed): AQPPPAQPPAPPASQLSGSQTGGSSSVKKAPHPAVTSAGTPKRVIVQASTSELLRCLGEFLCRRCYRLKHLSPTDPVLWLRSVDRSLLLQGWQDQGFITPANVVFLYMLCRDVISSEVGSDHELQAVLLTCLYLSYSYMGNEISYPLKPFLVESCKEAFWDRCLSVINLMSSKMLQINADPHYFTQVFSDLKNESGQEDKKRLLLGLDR
Procedure: as §1

HsGSK3β = HsGSK3β (Homo sapiens, UniProt P49841); experiment: ADP-Glo kinase assay; format: biochemical, Homo sapiens (Hs); details: mean n = 2, % of maximum activity of DMSO control, read-out: % Residual activity at 1 μM GSK3β
HsGSK3β, sequence (P49841 whole entry): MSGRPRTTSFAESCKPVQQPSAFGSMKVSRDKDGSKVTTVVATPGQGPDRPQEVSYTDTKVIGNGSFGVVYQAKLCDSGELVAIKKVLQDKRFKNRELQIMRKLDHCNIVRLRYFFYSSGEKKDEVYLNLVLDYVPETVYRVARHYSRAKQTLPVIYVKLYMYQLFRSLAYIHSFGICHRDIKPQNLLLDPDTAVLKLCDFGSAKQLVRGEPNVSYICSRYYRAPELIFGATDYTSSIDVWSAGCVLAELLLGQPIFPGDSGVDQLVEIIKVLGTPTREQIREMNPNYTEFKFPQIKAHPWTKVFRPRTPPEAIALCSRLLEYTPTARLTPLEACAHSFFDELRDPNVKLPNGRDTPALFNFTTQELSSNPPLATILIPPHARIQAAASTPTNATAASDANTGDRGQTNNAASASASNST
Procedure: as §1

HsCdk2/Cyc A = HsCdk2/Cyc A (Homo sapiens, UniProt P24941); experiment: ADP-Glo kinase assay; format: biochemical, Homo sapiens (Hs); details: mean n = 2, % of maximum activity of DMSO control, read-out: % Residual activity at 1 μM CDK2
Procedure: as §1

HsHaspin = molecular target: T1, HsHaspin (Homo sapiens, UniProt Q8TF76); experiment: ADP-Glo kinase assay; format: biochemical, Homo sapiens (Hs); details: for remaining activity at 1 µM: mean n = 2, % of maximum activity of DMSO control, read-out: % Residual activity at 1 μM Haspin; for IC50: dose-response curve, each point in duplicate, read-out: Kinase inhibition (IC50) Haspin
T1 sequence (Q8TF76 1-798): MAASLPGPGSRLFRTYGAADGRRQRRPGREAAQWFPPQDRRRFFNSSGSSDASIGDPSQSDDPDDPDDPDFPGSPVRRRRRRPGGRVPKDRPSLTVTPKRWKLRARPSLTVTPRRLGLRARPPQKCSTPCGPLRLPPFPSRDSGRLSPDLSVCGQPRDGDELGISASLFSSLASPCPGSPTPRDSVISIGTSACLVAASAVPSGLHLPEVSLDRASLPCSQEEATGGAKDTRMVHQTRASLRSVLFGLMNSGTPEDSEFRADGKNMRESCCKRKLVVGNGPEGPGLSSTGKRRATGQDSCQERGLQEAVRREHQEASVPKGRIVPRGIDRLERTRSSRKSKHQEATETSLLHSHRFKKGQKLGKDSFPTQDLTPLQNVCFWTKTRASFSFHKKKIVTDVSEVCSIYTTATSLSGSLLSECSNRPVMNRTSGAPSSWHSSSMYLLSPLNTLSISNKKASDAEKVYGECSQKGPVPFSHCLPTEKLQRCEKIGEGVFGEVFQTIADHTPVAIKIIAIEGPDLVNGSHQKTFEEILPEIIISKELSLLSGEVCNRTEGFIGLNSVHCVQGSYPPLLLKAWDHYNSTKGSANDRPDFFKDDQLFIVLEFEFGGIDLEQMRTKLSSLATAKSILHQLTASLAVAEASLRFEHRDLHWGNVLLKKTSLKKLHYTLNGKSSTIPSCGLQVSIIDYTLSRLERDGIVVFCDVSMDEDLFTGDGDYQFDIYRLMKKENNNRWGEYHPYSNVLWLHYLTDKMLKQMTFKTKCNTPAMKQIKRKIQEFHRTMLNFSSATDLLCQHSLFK
Procedure: as §1

HsPIM1 = HsPIM1 (Homo sapiens, UniProt P11309); experiment: ADP-Glo kinase assay; format: biochemical, Homo sapiens (Hs); details: mean n = 2, % of maximum activity of DMSO control, read-out: % Residual activity at 1 μM PIM1
HsPIM1, sequence (P11309 whole entry): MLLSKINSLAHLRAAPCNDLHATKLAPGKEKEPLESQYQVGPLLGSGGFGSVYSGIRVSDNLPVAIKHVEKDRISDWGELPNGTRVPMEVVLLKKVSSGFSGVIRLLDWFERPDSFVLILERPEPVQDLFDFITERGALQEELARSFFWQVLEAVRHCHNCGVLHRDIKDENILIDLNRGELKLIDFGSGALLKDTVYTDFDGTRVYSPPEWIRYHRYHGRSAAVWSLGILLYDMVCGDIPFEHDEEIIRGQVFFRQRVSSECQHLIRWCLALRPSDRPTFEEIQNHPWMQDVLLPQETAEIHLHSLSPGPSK
Procedure: as §1

HsCdk9/Cyc E = HsCdk9/Cyc E (Homo sapiens, UniProt P50750); experiment: ADP-Glo kinase assay; format: biochemical, Homo sapiens (Hs); details: mean n = 2, % of maximum activity of DMSO control, read-out: % Residual activity at 1 μM CDK9
HsCdk9/Cyc E, sequence (P50750 whole entry): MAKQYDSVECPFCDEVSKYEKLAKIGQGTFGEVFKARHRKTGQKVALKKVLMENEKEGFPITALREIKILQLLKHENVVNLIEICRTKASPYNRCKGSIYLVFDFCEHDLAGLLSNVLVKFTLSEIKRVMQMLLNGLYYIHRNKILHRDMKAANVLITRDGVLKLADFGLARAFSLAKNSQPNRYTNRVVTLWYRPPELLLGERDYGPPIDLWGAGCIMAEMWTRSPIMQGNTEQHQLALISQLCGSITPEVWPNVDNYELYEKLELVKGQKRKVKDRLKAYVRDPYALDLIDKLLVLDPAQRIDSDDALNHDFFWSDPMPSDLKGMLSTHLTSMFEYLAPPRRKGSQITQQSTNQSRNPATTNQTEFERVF
HsCdk9/Cyc E, sequence (O60563 whole entry partner): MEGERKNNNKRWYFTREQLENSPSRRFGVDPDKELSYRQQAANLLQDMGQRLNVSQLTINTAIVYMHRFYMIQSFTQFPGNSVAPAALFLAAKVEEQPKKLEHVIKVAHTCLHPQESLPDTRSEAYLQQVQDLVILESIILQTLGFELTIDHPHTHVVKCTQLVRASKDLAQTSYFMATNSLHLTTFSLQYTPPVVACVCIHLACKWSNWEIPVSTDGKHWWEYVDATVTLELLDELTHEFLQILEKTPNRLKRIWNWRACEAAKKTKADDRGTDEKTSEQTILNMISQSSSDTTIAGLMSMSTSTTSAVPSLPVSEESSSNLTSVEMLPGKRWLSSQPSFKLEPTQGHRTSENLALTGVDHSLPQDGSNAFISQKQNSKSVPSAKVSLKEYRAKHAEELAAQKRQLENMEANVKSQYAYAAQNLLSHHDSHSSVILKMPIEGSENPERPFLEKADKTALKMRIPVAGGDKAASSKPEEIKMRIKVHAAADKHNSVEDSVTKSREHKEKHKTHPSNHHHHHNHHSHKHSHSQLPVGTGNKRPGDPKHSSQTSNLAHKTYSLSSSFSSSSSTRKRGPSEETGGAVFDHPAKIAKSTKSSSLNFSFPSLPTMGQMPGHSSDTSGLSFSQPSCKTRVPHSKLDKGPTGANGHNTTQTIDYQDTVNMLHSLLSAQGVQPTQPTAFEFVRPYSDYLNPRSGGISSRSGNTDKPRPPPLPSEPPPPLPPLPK
Procedure: as §1

RnDYRK1A = RnDYRK1A (Rattus norvegicus, UniProt Q63470); experiment: ADP-Glo kinase assay; format: biochemical, Rattus norvegicus (Rn); details: for remaining activity: mean n = 2, % of maximum activity of DMSO control, read-out: % Residual activity at 1 μM DYRK1A; for Selectivity index DYRK/Haspin: IC50 DYRK1A/IC50 Haspin; for IC50: dose-response curve, each point in duplicate, read-out: Kinase inhibition (IC50) DYRK1A
Procedure: as §1

MmCLK1, sequence (P22518 whole entry): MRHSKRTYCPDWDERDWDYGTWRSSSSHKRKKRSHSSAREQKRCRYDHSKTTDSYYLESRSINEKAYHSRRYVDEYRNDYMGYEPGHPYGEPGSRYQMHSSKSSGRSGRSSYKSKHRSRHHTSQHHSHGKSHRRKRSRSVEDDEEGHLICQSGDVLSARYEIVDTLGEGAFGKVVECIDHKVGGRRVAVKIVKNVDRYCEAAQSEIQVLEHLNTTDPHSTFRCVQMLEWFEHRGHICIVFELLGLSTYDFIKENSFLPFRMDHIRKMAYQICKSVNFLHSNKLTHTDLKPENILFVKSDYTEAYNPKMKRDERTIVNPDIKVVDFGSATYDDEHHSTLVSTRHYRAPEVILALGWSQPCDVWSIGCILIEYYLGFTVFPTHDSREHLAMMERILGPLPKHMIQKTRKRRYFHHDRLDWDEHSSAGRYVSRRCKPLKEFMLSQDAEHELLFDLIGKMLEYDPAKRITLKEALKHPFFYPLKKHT

remaining activity at 1 µM (MmCLK1) [%] | remaining activity at 1 µM (HsCdk5/p25) [%] | remaining activity at 1 µM (HsGSK3β) [%] | remaining activity at 1 µM (HsCdk2/Cyc A) [%] | remaining activity at 1 µM (HsHaspin) [%] | remaining activity at 1 µM (HsPIM1) [%] | remaining activity at 1 µM (HsCdk9/Cyc E) [%] | remaining activity (RnDYRK1A) [%] | melting point | Selectivity index CLK1/Haspin (MmCLK1) | IC50 (MmCLK1) [nM] | IC50 (HsHaspin) [nM] | Selectivity index DYRK/Haspin (RnDYRK1A) | IC50 (RnDYRK1A) [nM] | Structure (SMILES)
67 | 100 | 100 | 100 | 44 | 86 | 63 | 61 | – | – | – | – | – | – | O=c1[nH]c2ccccc2c2c1[nH]c1ccccc12 [Compound 45, 5,7-Dihydro-6H-indolo[2,3-c]quinolin-6-one]
22 | 59 | 47 | 61 | 28 | 37 | 20 | 33 | 238 to 240 °C (dec.) | – | – | – | – | – | O=c1[nH]c2cc(O)ccc2c2c1[nH]c1ccccc12 [Compound 47, 3-Hydroxy-5,7-dihydro-6H-indolo[2,3-c]quinolin-6-one]
1 | 63 | 22 | 58 | 2 | 29 | 37 | 5 | 205 to 208 °C | 5 | 78 | 16 | 15 | 242 | COc1ccc2[nH]c3c(=O)[nH]c4cc(OC)c(OC)cc4c3c2c1 [Compound 52, 2,3,10-Trimethoxy-5,7-dihydro-6H-indolo[2,3-c]quinolin-6-one]
11 | 56 | 63 | 76 | 33 | 31 | 56 | 36 | 241 to 244 °C | – | – | – | – | – | COc1ccc2[nH]c3c(=O)[nH]c4ccc(C(F)(F)F)cc4c3c2c1 [Compound 53, 10-Methoxy-2-(trifluoromethyl)-5,7-dihydro-6H-indolo[2,3-c]quinolin-6-one]
2 | 100 | 58 | 100 | 3 | 37 | 72 | 10 | 242 to 245 °C | 8 | 259 | 34 | 8 | 280 | COc1ccc2[nH]c3c(=O)[nH]c4ccc(NC(C)=O)cc4c3c2c1 [Compound 57, N-(10-Methoxy-6-oxo-6,7-dihydro-5H-indolo[2,3-c]quinolin-2-yl)acetamide]
49 | 55 | 51 | 62 | 59 | 48 | 55 | 55 | 235 to 237 °C | – | – | – | – | – | COc1ccc2c(c1)[nH]c1c(=O)[nH]c3ccccc3c12 [Compound 58, 9-Methoxy-5,7-dihydro-6H-indolo[2,3-c]quinolin-6-one]
12 | 51 | 41 | 74 | 13 | 34 | 41 | 21 | 235 to 237 °C | 3 | 94 | 30 | 2 | 73 | COc1ccc2c(c1)[nH]c1c(=O)[nH]c3ccc(OC)cc3c12 [Compound 59, 2,9-Dimethoxy-5,7-dihydro-6H-indolo[2,3-c]quinolin-6-one]
31 | 100 | 100 | 97 | 9 | 100 | 100 | 44 | 135 to 136 °C | 6 | 122 | 19 | 8 | 143 | COc1ccc2[nH]c(=O)c3[nH]c4ccc(F)cc4c3c2c1 [Compound 60, 10-Fluoro-2-methoxy-5,7-dihydro-6H-indolo[2,3-c]quinolin-6-one]
0 | 22 | 31 | 31 | 0 | 75 | 6 | 2 | > 250 °C | 7 | 124 | 18 | 7 | 131 | COc1ccc2c(c1)c1c3cc(O)ccc3[nH]c(=O)c1n2C [Compound 62, 2-Hydroxy-10-methoxy-7-methyl-5,7-dihydro-6H-indolo[2,3-c]quinolin-6-one]
19 | 68 | 44 | 67 | 51 | 42 | 45 | 29 | – | – | – | – | – | – | COc1ccc2c(c1)c1c3cc(C(F)(F)F)ccc3[nH]c(=O)c1n2C [Compound 63, 10-Methoxy-7-methyl-2-(trifluoromethyl)-5,7-dihydro-6H-Indolo[2,3-c]quinolin-6-one]
11 | 100 | 81 | 100 | 39 | 82 | 59 | 19 | 231 to 234 °C | – | – | – | – | – | COc1ccc2c(c1)c1c3cc(N(C)C)ccc3[nH]c(=O)c1n2C [Compound 64, 2-(Dimethylamino)-10-methoxy-7-methyl-5,7-dihydro-6H-indolo[2,3-c]quinolin-6-one]
